The record followed here is patent US20250249060A1, “APPLICATION METHOD OF ACTIVE PORTION OF LIGUSTICUM CHUANXIONG IN PREPARATION OF ANTI-GOUT DRUG” (Shaanxi University of Chinese Medicine, priority 2024, published 2025).

Series [1] relates to acute gouty arthritis mice. Kind of series: Paw swelling degree in MSU-induced acute gouty arthritis mice. In kind it is in vivo. The protocol: Livers of the mice are taken and kept in a temperature of −80° C. for later use. The normal control group of mice is injected with 0.1 mL of physiological saline onto right foot pad of the mice after 1 h gavage on the 7th day. […] 0 h, 4 h, 8 h, 12 h and 24 h after the MSU crystal suspension injection, paw volumes of the mice are measured by using the paw volume measuring instrument, the paw swelling degrees of the mice are calculated, and the calculation formula is as follows: [formula] • where Ct represents a paw volume at different time points after injection, and Co represents a paw volume at 0 h after injection.

The nature of series [2]: Body weight gain of mice before and after treatment. Conditions: allopurinol 40 mg/kg·d, colchicine 1 mg/kg·d, extract 500 mg/kg·d.
Series [3] deals with xanthine oxidase (XOD, or XO) (Homo sapiens, UniProt P47989). Kind of series: Inhibitory effect of extracts/liquid-liquid extracts on XOD activity in vitro (96-well plate, absorbance at 295 nm). The class given is biochemical. As to conditions: tested samples as 1 mg/mL solution, allopurinol positive control 2 mg in 1 mL DMSO + 8 mL PBS. Here is the method: 2.1 Buffer solution preparation: 0.4780 g of potassium phosphate monobasic (KH2PO4), 3.473 g of dipotassium hydrogen phosphate trihydrate (K2HPO4·3H2O) and 10.00 milligrams (mg) of ethylenediaminetetraacetic acid disodium salt (EDTA-2Na) are accurately weighed, and then placed in a 250 mL volumetric flask, and diluted to volume with distilled water to obtain the buffer solution. 2.2 Substrate preparation: 3.65 mg of xanthine is accurately weighed, and then added into the buffer solution to dilute to volume of 50 mL, and the xanthine is dissolved with ultrasound to obtain the substrate. 2.3 Enzyme solution preparation: XOD (5 units abbreviated as U) is taken and diluted with 50 mL of the buffer solution to obtain a diluted solution, and the diluted solution is subpackaged in sample bottles to obtain the enzyme solution, and kept in a temperature of −70 Celsius degree (° C.) for later use. […] After that the solution is filtered with a microporous filter membrane to obtain the samples to be tested for later use. 2.6 XOD activity determination: […] […] 2.8 A half maximal inhibitory concentration (IC50) value measurement: the active portion is prepared into 7 series concentrations to explore a dose-effect relationship based on results of the activity test, and IC50 value of the active portion is calculated through a GraphPad prism 8 software.
Sequence of xanthine oxidase (XOD, or XO) (P47989 whole entry, species assumed): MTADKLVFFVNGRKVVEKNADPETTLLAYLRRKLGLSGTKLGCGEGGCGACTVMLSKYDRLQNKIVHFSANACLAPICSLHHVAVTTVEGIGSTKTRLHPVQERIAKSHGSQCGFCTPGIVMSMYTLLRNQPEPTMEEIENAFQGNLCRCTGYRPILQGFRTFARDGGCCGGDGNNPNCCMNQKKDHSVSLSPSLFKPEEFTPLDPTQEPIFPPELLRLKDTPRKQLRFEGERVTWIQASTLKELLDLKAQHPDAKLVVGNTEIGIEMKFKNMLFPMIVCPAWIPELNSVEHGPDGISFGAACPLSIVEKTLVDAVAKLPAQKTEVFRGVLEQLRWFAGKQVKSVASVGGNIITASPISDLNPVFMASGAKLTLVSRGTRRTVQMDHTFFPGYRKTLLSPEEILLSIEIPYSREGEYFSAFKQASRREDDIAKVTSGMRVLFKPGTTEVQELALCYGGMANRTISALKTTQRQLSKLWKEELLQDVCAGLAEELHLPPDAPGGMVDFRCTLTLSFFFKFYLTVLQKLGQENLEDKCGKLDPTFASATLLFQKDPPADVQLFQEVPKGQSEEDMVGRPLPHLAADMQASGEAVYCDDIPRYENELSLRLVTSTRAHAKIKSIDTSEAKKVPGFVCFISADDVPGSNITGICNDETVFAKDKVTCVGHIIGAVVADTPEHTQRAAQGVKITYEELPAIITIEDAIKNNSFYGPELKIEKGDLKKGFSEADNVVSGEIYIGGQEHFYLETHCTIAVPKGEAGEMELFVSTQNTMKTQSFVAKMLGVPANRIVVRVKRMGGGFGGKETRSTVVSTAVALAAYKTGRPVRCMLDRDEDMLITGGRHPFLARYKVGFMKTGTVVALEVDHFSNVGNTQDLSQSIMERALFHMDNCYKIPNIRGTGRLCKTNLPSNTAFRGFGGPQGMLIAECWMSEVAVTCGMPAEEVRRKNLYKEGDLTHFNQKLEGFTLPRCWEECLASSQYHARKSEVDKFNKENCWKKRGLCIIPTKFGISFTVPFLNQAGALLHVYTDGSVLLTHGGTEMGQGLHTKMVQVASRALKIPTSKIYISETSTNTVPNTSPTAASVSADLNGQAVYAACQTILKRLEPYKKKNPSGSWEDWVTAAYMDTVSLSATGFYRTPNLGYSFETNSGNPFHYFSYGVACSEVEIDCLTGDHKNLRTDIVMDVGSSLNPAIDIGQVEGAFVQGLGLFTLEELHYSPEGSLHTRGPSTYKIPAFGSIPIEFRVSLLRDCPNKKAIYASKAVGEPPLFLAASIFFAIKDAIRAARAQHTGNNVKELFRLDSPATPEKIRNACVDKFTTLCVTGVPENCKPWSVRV

The test system of the next series is hyperuricemia mice. Description: Serum uric acid level in hyperuricemia mice. As to conditions: gavage 7 days. The class given is in vivo.
In another series the target is T1, serum XOD (Rattus norvegicus, UniProt P22985).
T1 construct: The activity of the serum XOD of hyperuricemia in rats is measured by using the colorimetry; from tissue; host or cells: serum of hyperuricemia rats
T1 sequence (P22985 whole entry): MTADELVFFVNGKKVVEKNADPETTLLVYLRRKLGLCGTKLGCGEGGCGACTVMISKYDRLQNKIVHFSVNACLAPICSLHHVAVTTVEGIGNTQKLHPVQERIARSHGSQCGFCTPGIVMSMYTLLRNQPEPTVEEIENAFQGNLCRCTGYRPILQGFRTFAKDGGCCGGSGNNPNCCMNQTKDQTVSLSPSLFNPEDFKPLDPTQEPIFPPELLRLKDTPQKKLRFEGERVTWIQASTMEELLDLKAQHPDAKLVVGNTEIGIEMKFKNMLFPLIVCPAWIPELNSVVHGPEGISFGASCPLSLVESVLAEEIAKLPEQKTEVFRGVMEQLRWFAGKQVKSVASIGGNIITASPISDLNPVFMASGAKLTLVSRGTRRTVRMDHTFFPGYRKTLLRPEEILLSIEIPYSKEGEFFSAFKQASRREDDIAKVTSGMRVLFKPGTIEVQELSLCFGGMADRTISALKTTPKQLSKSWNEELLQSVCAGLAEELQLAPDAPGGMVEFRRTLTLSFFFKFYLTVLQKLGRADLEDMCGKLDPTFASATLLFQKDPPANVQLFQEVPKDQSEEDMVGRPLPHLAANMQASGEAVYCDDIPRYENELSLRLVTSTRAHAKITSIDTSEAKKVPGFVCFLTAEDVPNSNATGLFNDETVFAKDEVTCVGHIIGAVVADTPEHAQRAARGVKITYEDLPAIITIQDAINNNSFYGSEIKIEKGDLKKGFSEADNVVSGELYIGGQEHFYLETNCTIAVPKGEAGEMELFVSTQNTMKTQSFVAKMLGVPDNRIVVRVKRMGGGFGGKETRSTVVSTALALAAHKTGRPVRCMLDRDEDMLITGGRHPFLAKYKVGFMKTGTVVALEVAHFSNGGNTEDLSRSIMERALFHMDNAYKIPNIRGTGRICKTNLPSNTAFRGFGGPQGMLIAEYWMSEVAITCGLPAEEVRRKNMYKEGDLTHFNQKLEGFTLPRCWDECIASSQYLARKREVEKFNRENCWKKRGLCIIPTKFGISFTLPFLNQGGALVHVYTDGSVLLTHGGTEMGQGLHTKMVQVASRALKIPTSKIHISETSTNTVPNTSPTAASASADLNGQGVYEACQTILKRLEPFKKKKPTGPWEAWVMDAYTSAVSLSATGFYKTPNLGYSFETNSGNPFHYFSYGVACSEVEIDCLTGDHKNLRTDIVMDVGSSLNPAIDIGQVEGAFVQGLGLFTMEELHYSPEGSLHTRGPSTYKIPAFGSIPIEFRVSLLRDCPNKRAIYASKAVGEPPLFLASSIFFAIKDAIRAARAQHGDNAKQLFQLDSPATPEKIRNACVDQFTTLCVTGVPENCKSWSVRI
Kind of series: Serum XOD activity in hyperuricemia rats. In kind it is in vivo. As to conditions: model group 30 U/L.

For the molecule `COc1cc2c(c(OC)c1OC)-c1ccc(OC)c(=O)cc1[C@@H](NC(C)=O)CC2` [colchicine], the “decrease of paw swelling degree compared with the model group” value in series [1] (24 h after MSU injection) is reported as 15.32%; in series [1] (at 4 h, 8 h, 12 h and 24 h), “more than 9%”. Moreover, in series [2], the “weight gain compared to the normal control group” value is “significantly lower”.
For `Oc1ncnc2[nH]ncc12` [allopurinol], the “inhibition rate on activity of the XOD” value in series [3] was determined as 96.78%. Besides, in the series with hyperuricemia mice, the “decrease of serum uric acid level compared to the model group” value amounted to 75.16%. For the same molecule, the “serum uric acid level” value in the series on hyperuricemia mice (model 286.82 μmol/L) was 68.72 µmol/L. Also, at serum XOD, the “serum XOD activity compared to the model group” value is listed as “significantly decreases”.
